Structures can show the parent of a compound that is named as a salt.
Assays:
Type in all cases: in vivo, humans
[1] = tested on: eyes of patients suffering from severe night vision difficulty; experiment: Example 1 clinical study: eye redness, CCLRU Redness Grading Scale regraded 0, 0.5, 1, 2, 3
From the text: Sixty patients with normal day vision (i.e., 20/40 or better) but which suffer from severe night vision difficulty were enrolled in the study. During the first period of the study, patients were randomized into three groups. The groups received either placebo, 0.5% (w/v) phentolamine mesylate, or 1.0% (w/v) phentolamine mesylate once daily for 15 days. […] During the second period of the study, all sixty patients were instructed to administer an ophthalmic solution of phentolamine mesylate (1% (w/v)) as needed, but no more than once daily to each eye. The ophthalmic solution of phentolamine mesylate contained: 1% (w/v) phentolamine mesylate, 4% (w/v) mannitol, 3 mM sodium acetate, and water. The placebo was a solution containing 4% (w/v) mannitol, 3 mM sodium acetate, and water.
Patients were to meet with a clinician for evaluation on study days 1, 4, 8, 15, and a post-dosing follow-up evaluation three or more days after administering the last dose in the second period. […]

[2] = tested on: eyes of patients suffering from severe night vision difficulty; experiment: Example 1 clinical study: reduction in pupil diameter; conditions: from percentage of eyes with at least 10% reduction in pupil diameter after the last dose, second period, 1% (w/v) (FIG. 4B)
From the text: (§1) Sixty patients with normal day vision (i.e., 20/40 or better) but which suffer from severe night vision difficulty were enrolled in the study. During the first period of the study, patients were randomized into three groups. The groups received either placebo, 0.5% (w/v) phentolamine mesylate, or 1.0% (w/v) phentolamine mesylate once daily for 15 days. The patients were observed on days 1, 4, 8, and 15 prior to administering the ophthalmic solution of phentolamine mesylate and then observed again two hours after the ophthalmic solution of phentolamine mesylate was administered. During the second period of the study, all sixty patients were instructed to administer an ophthalmic solution of phentolamine mesylate (1% (w/v)) as needed, but no more than once daily to each eye. The ophthalmic solution of phentolamine mesylate contained: 1% (w/v) phentolamine mesylate, 4% (w/v) mannitol, 3 mM sodium acetate, and water. The placebo was a solution containing 4% (w/v) mannitol, 3 mM sodium acetate, and water.

[3] = tested on: eyes of patients suffering from severe night vision difficulty; experiment: Example 1 clinical study: mesopic contrast sensitivity with glare, Holladay Automated Contrast Sensitivity System; conditions: for percentage of eyes with at least a 50% improvement in contrast sensitivity relative to baseline: 0.5% or 1.0% (w/v) once daily, beginning with day 8
From the text: as §1
Patients in the study satisfied the following criteria: (1) 18-45 years of age and suffer from severe night vision difficulty, (2) 0.3 log improvement at two of five spatial frequencies (1.5, 3, 6, 12, and 18 cycles per degree) in at least one eye before and during illumination of the contralateral eye, using the Holladay Automated Contrast Sensitivity System test under mesopic room illumination with glare, and (3) photopic distance high-contrast visual acuity (corrected or uncorrected) of 20/40 or better in at least one eye.
Patients were to meet with a clinician for evaluation on study days 1, 4, 8, 15, and a post-dosing follow-up evaluation three or more days after administering the last dose in the second period. When patients met with the clinician, the following observations were made by the clinician: (1) mesopic contrast sensitivity with and without glare using the Holladay Automated Contrast Sensitivity System test, (2) mesopic distance high-contrast visual acuity using E-ETDRS Acuity Testing, (3) mesopic distance low-contrast visual acuity using E-ETDRS Acuity Testing, (4) photopic distance high-contrast visual acuity using E-ETDRS Acuity Testing, and (5) eye redness using the Cornea and Contact Lens Research Unit (CCLRU) Redness Grading Scale developed by the School of Optometry, University of New South Wales, but that the grading scale was as follows: (0) none, (0.5) very slight, (1) slight, (2) moderate, and (3) severe.
The primary efficacy endpoint is an increase of at least 0.3 log (50% or more improvement) in mesopic contrast sensitivity with glare at two or more frequencies at 1.5, 3, 6, 12, and 18 cycles per degree, measured with Holladay Automated Contrast Sensitivity System methodology.

SMILES: Cc1ccc(N(CC2=NCCN2)c2cccc(O)c2)cc1 [Phentolamine Mesylate, phentolamine mesylate]
- eye redness ([1]; immediately after administration (FIG. 5)): increases
- eye redness ([1]; measured prior to administration on days 4, 8, and 15 (FIG. 5)): returns to baseline
- pharmacokinetic half-life [2]: approximately two
- percentage of eyes with at least a 50% improvement in contrast sensitivity relative to baseline ([3]; tested prior to that day's dose (FIG. 2)): greater than 20%
- percentage of eyes with at least a 50% improvement in contrast sensitivity relative to baseline ([3]; tested two hours after that day's dose (FIG. 1)): greater than 20%
- pharmacokinetic half-life ([3]; from percentage of eyes with at least 50% improvement in contrast sensitivity after the last dose, second period, 1% (w/v) (FIG. 4A)): approximately two
- percentage of eyes with at least a 50% improvement in contrast sensitivity, change over time ([3]; measured prior to that day's administration, from day 15 to day 32 (FIG. 3)): increased
- efficacy with repeated dosing (contrast sensitivity) ([3]; once daily during the 15-day study period (FIGS. 1 and 2)): no diminution in efficacy was observed
